Columns and labels:
[1] = tested on: B. longum subsp. infantis; assay: Viability of B. longum subsp. infantis after exposure to acid reducing compounds (anaerobic CFU); format: cell-based; conditions: 1 μg/ml and 0.5 μg/ml in citrate buffer (pH 5), 3 hours at 37° C.; with respect to buffer only controls
Method: Viability of B. longum subsp. infantis following exposure to various acid reducing compounds was examined. The benzimidazole derivative compounds omeprazole, esomeprazole, lansoprazole, pantoprazole, and rabeprazole and the H2 receptor antagonist famotidine were suspended in citrate buffer (pH 5) to concentrations of 1 μg/ml and 0.5 μg/ml. An amount of 2.4×10^8 colony forming units (CFU) B. longum subsp. infantis was pelleted and resuspended in each of the citrate buffer and drug solutions. Controls included 2.4×10^8 CFU B. longum subsp. infantis added to citrate buffer alone. Cells were incubated for 3 hours at 37° C. and then plated under anaerobic conditions. Anaerobic CFU were quantified to assess viability.

[2] = tested on: B. longum subsp. infantis; assay: Growth of B. longum subsp. infantis in the presence of acid-reducing compounds (OD600); format: cell-based; conditions: 24 hours; 125 μg/mL; versus vehicle controls
Method: Growth of B. longum subsp. infantis was assessed in the presence of various acid-reducing compounds, including proton pump inhibitor (PPI) compounds and an H2 receptor antagonist. Stock solutions were prepared by adding 10 mg/mL omeprazole, esomeprazole, lansoprazole, pantoprazole, rabeprazole, and famotidine to DMSO. The stock solutions were diluted 1:4 in PBS and then added in 2-fold serial dilutions to Reinforced Clostridial Media (RCM). The media was then inoculated with 5×10^5 colony forming units (CFU) of B. longum subsp. infantis and incubated under anaerobic conditions at 37° C. Vehicle only control groups consisted of 5×10^5 CFU B. longum subsp. infantis incubated in RCM with the same amounts of PBS and DMSO as the PPI conditions for each dose.

Cc1c(OCC(F)(F)F)ccnc1C[S+]([O-])c1nc2ccccc2[nH]1 (centres unmarked) [lansoprazole]
anaerobic CFU counts [1]: generally higher | OD600 values [2]: reduced OD600 values with respect to vehicle controls

Reference: patent publication US12364721B2, “Compositions and methods for treatment of inflammatory and immune diseases” (Prolacta Bioscience, Inc., priority 2019, dated 2025)
